Results reported in paper PMC6403363, “Proteolytic Degradation of reduced Human Beta Defensin 1 generates a Novel Antibiotic Octapeptide” (Scientific Reports, 2019).
Where a SMILES comes first, the peptide text is derived from it. Where no end group is shown, it is not given here.

Tests used:
[1] = system: Candida albicans; experiment: Radial diffusion assay; assay type: cell-based; settings: for antimicrobial activity against C. albicans (diameter of inhibition zones): 4 µg peptide, variants compared with RGKAKCCK (Fig. 1E,F, Fig. 2A)
Experimental: (§1) Antimicrobial radial diffusion assay was modified from reference[17] and performed as described earlier. Briefly, microorganisms were cultivated (anaerobic bacteria with AnaeroGen, Oxoid, UK) for up to 18 hours in liquid TSB medium. Log-phase cultures were washed and diluted to 4 × 10^6 colony forming units in 10 ml agar. Incubation was carried out in 10 ml of 10 mM sodium phosphate, either pH 7.4 or 5.7, containing 0.3 mg/ml of TSB powder and 1% (w/v) low EEO-agarose (AppliChem) with 0 or 1 mM dithiothreitol (DTT, Sigma-Aldrich) under anaerobic or aerobic conditions for three hours. 1 or 4 µg of synthetic, oxidized hBD-1 (Peptide Institute, Japan) and 1 or 4 µg of synthetic peptides (EMC Microcollections, Tuebingen) were filled into small punched wells in a final volume of 4 µl. This concentrated peptide solution dilutes while diffusing into the gel, thereby generating concentration-dependent, round-shaped inhibition zones when killing immobilized microorganisms.
(§2) An overlay-gel containing 6% (w/v) TSB powder, 1% agarose and 10 mM sodium phosphate buffer without DTT was poured onto the plates and after incubation for up to 48 h at 37 °C the diameter of inhibition zones was measured. Experiments were repeated at least three times; mean + SEM is shown.

[2] = system: Escherichia coli; experiment: Radial diffusion assay; assay type: cell-based; settings: for antimicrobial activity against E. coli (diameter of inhibition zones): 4 µg peptide, variants compared with RGKAKCCK (Fig. 1E,F, Fig. 2A)
Experimental: as §1, §2

[3] = system: C. albicans SC5314; experiment: Model of oral candidiasis: RHOE infected with C. albicans; assay type: cell-based, Candida albicans; settings: RHOE preincubated 1 h with 50 µg/ml peptide, infected with C. albicans for 24 h; for fungal load / invasion of the epithelium: histology (Fig. 5A)
Experimental: Octapeptides were diluted to 50 µg/ml in PBS, or an equivalent volume of 0.01% acetic acid were applied to the apical side of the RHOEs and incubated for 1 h. C. albicans SC5314 was synchronized as described previously. Yeast cells were washed three times in PBS and 1 × 10^5 CFU were used for infection of pre-treated RHEs. After 24 h RHEs were fixed with Karnovsky’s fixative. Post-fixed samples (1% OsO4, 1 h) were rinsed with distilled water, block-stained with uranyl acetate (2% in distilled water), dehydrated in alcohol (stepwise 30–96%), immersed in propylene oxide and embedded in glycide ether (polymerized 48 h at 60 °C, Serva, Heidelberg). Semi-thin sections were stained with toluidine blue and examined with a Nikon Eclipse 80i light microscope (magnification 1:400). Afterwards, fungal cells were simply coloured in red.

[4] = system: E. coli ATCC 25922; experiment: Broth microdilution assay (turbidity and CFU); assay type: cell-based, Escherichia coli; settings: 100 µg/ml peptide, 2 hours at 37 °C, plated on agar (Fig. 2D)
Experimental: To differentiate between microbistatic and microbicidal activity we performed a broth microdilution assay. For that, E. coli ATCC25922 bacteria were incubated overnight at 37 °C, 150 rpm. C. albicans ATCC 10231 was grown at 30 °C overnight, 150 rpm in liquid TSB. Cells were collected by centrifugation (2500 rpm, 10 min, 4 °C), washed twice and resuspended in 10 mM sodium phosphate buffer containing 1% (w/v) TSB broth. Required C. albicans cell density was adjusted using a hemocytometer. For bacteria the optical density of OD600nm = 0.1 was determined. Approximately 5 × 10^5 CFU/ml bacteria or fungi were mixed with indicated peptide concentrations (1.25–200 µg/ml) in a final volume of 100 µl in 10 mM sodium phosphate buffer containing 1% (w/v) TSB broth and incubated for 2 hours at 37 °C. After incubation 10 µl per well were plated on LB-/ or YPD-agar plates to determine the CFU/ml. After that 100 µl of 6% TSB (w/v) were added and absorbance was measured at 600 nm (Tecan, Switzerland) and monitored for 18 hours. Growth relative to the positive control in % was plotted against peptide concentration. Experiments were carried out at least three times; mean ± SEM is shown.

[5] = system: Bifidobacterium breve; experiment: Radial diffusion assay; assay type: cell-based; settings: 1 or 4 µg peptide per well (Fig. 1D)
Experimental: as §1, §2

[6] = system: trypsin; settings: cited from earlier work
Source text: Due to their ancient evolutionary origin and the strong demand for novel antimicrobial strategies, AMPs have been considered as potential antibiotic drug candidates. Mainly because they target “Achilles heels” of microorganisms, only few resistance mechanisms have been evolved over long time[14],[15]. Still, large-scale chemical synthesis of defensins containing three native disulphide-bridges has been a challenge and rendered the production expensive. Accordingly, the production of smaller, but yet antibiotic, fragments of defensins without disulphide bridges is a promising option. We have sh ...

[7] = assay type: in vitro ADME, human; settings: pH 6.5
Experimental: (§3) 2 µg of oxidized or reduced hBD-1 were digested with pepsin or chymotrypsin at a protease: peptide ratio of 1:20 in HCl-acidified water, pH 3 (pepsin) or 10 mM sodium phosphate, pH 7.4 (chymotrypsin) for 90 min. Human duodenal secretion (pH 6.5–7) was taken during a routine gastroscopy by rinsing the duodenum with saline. Oxidized and reduced hBD-1 were incubated with human duodenal secretion for 30 min at 37 °C. As a control both peptides were incubated with 0.9% NaCl. Peptides were enriched with ZipTip (Millipore), co-crystallized with a-cyano-4-hydroxy cinnamic acid and analyzed with an ultraflex TOF/TOF machine (Bruker, Germany).

[8] = system: Pseudomonas aeruginosa; experiment: Radial diffusion assay; assay type: cell-based; settings: P. aeruginosa ATCC type strain (Figs 1D, 2A)
Experimental: as §1, §2

[9] = system: Bifidobacterium adolescentis; experiment: Radial diffusion assay; assay type: cell-based; settings: 10 mM sodium phosphate, 1 or 4 µg peptide per well, at least three experiments (Fig. 1D)
Experimental: as §1, §2

[10] = system: Streptococcus salivarius ssp. thermophilus; experiment: Radial diffusion assay; assay type: cell-based; settings: 1 or 4 µg peptide per well, at least three experiments (Fig. 1D)
Experimental: as §1, §2

[11] = system: selected commensal and pathogenic microorganisms; experiment: Radial diffusion assay, semi-quantitative evaluation on a molar base; assay type: cell-based; settings: 4 µg reduced hBD-1 equivalent to 254 µM, 1 µg octapeptide equivalent to 280 µM in the RDA
Experimental: as §1, §2

[12] = system: E. coli ATCC 25922; experiment: Flow cytometric assay, propidium iodide uptake; assay type: cell-based, Escherichia coli; settings: 100 µg/ml peptide, 1 h, flow cytometry, at least three experiments (Fig. 3A)
Experimental: (§4) Approximately 1.5 × 10^6 CFU log-phase bacteria or overnight cultured C. albicans ATCC 10231 were used in a final volume of 100 µl TSB (1:6 diluted H2O). We added peptides in concentrations 50 and 100 µg/ml in a final volume of 10 µl and incubated theses suspensions for 1 h at 37 °C. Subsequently 2 µl of membrane potential sensitive dye DiBAC4(3) [bis-[1,3-dibutylbarituric acid)trimethine oxonol] (Thermo Scientific, USA) (50 µg/ml) or Propidium Iodide (Thermo Scientific, USA) (50 µg/ml) were added and incubated for 10 min at room temperature. Then samples were centrifuged (5 min, 7000 rpm, RT) and re-suspended in 300 µl PBS. The percentage of fluorescent positive cells was determined using Canto II flow cytometer (BD Bioscience) with DIVA software (BD Bioscience) as described earlier. Experiments were repeated at least three times and mean +/− SEM is shown.

[13] = system: C. albicans ATCC 10231; experiment: Flow cytometric assay, propidium iodide uptake; assay type: cell-based, Candida albicans; settings: 100 µg/ml peptide, 1 h, flow cytometry (Fig. 3A)
Experimental: as §4

[14] = system: antibiotic-resistant bacteria; experiment: Radial diffusion assay, drug-resistant clinical isolates overall; assay type: cell-based; settings: 4 µg peptide, direct comparison of the four peptides (Fig. 2B)
Experimental: as §1, §2

[15] = system: pepsin; experiment: Protease digestion with pepsin, fragments analysed by MALDI-MS; assay type: in vitro ADME; settings: 2 µg peptide, protease:peptide 1:20, HCl-acidified water pH 3, 90 min
Experimental: as §3

[16] = system: chymotrypsin; experiment: Protease digestion with chymotrypsin, fragments analysed by MALDI-MS; assay type: in vitro ADME; settings: 2 µg peptide, protease:peptide 1:20, 10 mM sodium phosphate pH 7.4, 90 min
Experimental: as §3

[17] = 1 or 4 µg peptide per well, at least three experiments (Fig. 1D)

Molecule: RGKAKCAK [octapeptide with Cys7 replaced by alanine]
- antimicrobial activity against C. albicans (diameter of inhibition zones) [1]: strongly decreased activity
- antimicrobial activity against E. coli (diameter of inhibition zones) [2]: increased

Molecule: CC(=O)N[C@@H](CCCNC(=N)N)C(=O)NCC(=O)N[C@@H](CCCCN)C(=O)N[C@@H](C)C(=O)N[C@@H](CCCCN)C(=O)N[C@@H](CS)C(=O)N[C@@H](CS)C(=O)N[C@@H](CCCCN)C(N)=O [Ac-RGKAKCCK-NH2] (Ac-RGKAKCCK-NH2)
- fungal load / invasion of the epithelium [3]: invaded the whole epithelium
- decrease in CFU of E. coli compared to untreated controls [4]: more than 100 fold

Molecule: DHYNCVSSGGQCLYSACPIFTKIQGTCYRGKAKCCK [reduced hBD-1, hBD-1 after reduction of its three disulphide bridges, a linear peptide]
- antimicrobial activity (inhibition zones) [5]: inhibited its growth
- degradation by the intestinal protease trypsin [6]: can be degraded
- digestion by human duodenal secretion (generation of fragment m/z 893.5) [7]: generated a fragment having an m/z of 893.5

Molecule: C[C@H](NC(=O)[C@H](CCCCN)NC(=O)CNC(=O)[C@@H](N)CCCNC(=N)N)C(=O)N[C@@H](CCCCN)C(=O)N[C@@H](CS)C(=O)N[C@@H](CS)C(=O)N[C@@H](CCCCN)C(=O)O [RGKAKCCK] (H-RGKAKCCK-OH)
- antimicrobial activity (diameter of inhibition zones) [1, 17]: convincing activity
- antimicrobial activity (inhibition zones) [5]: no inhibition zones
- antimicrobial activity (diameter of inhibition zones) [8]: neglectable antibiotic activity
- antimicrobial activity (diameter of inhibition zones) [9]: convincing activity
- antimicrobial activity (diameter of inhibition zones) [2, 17]: convincing activity
- antimicrobial activity (diameter of inhibition zones) [10]: convincing activity
- activity on a molar base compared with the full length-peptide [11]: less potent
- epithelial damage ([3]; blinded scale 0 to 5 (Fig. 5B)): ameliorated epithelial damage
- fungal load / invasion of the epithelium [3]: convincingly reduced the fungal load
- PI uptake / bacterial killing (cell death) of E. coli [12]: ~100%
- PI uptake of C. albicans [13]: up to 60%
- decrease in CFU of E. coli compared to untreated controls [4]: more than 100 fold
- spectrum against the tested antibiotic-resistant bacteria [14]: inhibited growth of the most tested antibiotic-resistant bacteria

Molecule: AGKAKCCK [variant lacking Arg1]
- antimicrobial activity against C. albicans (diameter of inhibition zones) [1]: completely inactive
- antimicrobial activity against E. coli (diameter of inhibition zones) [2]: completely inactive

Molecule: RGKAKAAK [octapeptide with both cysteines replaced]
- antimicrobial activity against C. albicans (diameter of inhibition zones) [1]: completely abolished activity
- antimicrobial activity against E. coli (diameter of inhibition zones) [2]: completely abolished activity

Molecule: DHYNCVSSGGQCLYSACPIFTKIQGTCYRGKAKCCK (disulfide (positions not given here)) [oxidized hBD-1, host-defense peptide human beta-defensin 1 with three disulphide bridges]
- antimicrobial activity (inhibition zones) [5]: no inhibition zones
- proteolytic susceptibility towards pepsin [15]: protease resistant
- proteolytic susceptibility towards chymotrypsin [16]: protease resistant

Molecule: RGKAKACK [octapeptide with Cys6 replaced by alanine]
- antimicrobial activity against C. albicans (diameter of inhibition zones) [1]: strongly decreased activity
- antimicrobial activity against E. coli (diameter of inhibition zones) [2]: increased

Molecule: AGAAKCCK [variant lacking Arg1 and Lys3]
- antimicrobial activity against C. albicans (diameter of inhibition zones) [1]: completely inactive
- antimicrobial activity against E. coli (diameter of inhibition zones) [2]: completely inactive
